Assay results reported in US11135237B2, “Lipophosphonoxins of second generation, and their use” (USTAV ORGANICKE CHEMIE A BIOCHEMIE AV CR, V.V.I., priority 2016, dated 2021).
≈ marks a conversion by molar mass, not a printed value.

Legend:
Assay type in all cases: cell-based
[1] = test system: E. faecium VanA 419ana; experiment: MIC, microdilution method, resistant strains; details: Enterococcus faecium, VANA419ANA; vancomycin-resistant strain, clinical isolate
Description: (§1) Antibacterial activity was measured using a standard microdilution method, showing the minimum inhibitory concentration (MIC) of the test sample which results in inhibition of bacterial growth. Disposable microtiter plates were used for the tests. Samples are dissolved in the brain-heart infusion broth (HiMedia Laboraties Pvt. Ltd., Czech Republic), and Mueller Hinton broth (HiMedia Laboraties, see above) at a final concentration ranging from 200 μg/ml to 1.5625 μg/ml. Plates were inoculated with a standard amount of test bacteria—inoculum density in the hole corresponds to 10^5-6 CFU/ml (colony forming units/ml). MIC values are read after 24/48 hours of incubation at 37° C. as the minimum inhibitory concentration of the test substance at which the growth of bacteria is inhibited. Minimal bactericidal concentration (MBC) is defined as the minimum concentration of the sample needed to achieve irreversible inhibition, therefore killing the bacteria after a defined time of incubation. The MBC was determined by inoculation method. 10 μl from the wells in a microplate with a defined concentration of test substance is taken with an applicator, and inoculated onto the surface of blood agar (Trios, Czech Republic) and Sabouraud agar (Trios, CR). The MBC was determined as the lowest concentration that inhibited visible growth of the bacteria used.

[2] = test system: S. haemolyticus 16568; experiment: MIC, microdilution method, resistant strains; details: Staphylococcus haemolyticus, fluoroquinolone-resistant strain, clinical isolate
Description: as §1

[3] = test system: P. aeruginosa 16575; experiment: MIC, microdilution method, resistant strains; details: Pseudomonas aeruginosa, resistant strain, clinical isolate
Description: as §1

[4] = test system: S. aureus MRSA 4591; experiment: MIC, microdilution method, resistant strains; details: Staphylococcus aureus, methicillin-resistant strain, clinical isolate
Description: as §1

[5] = test system: S. epidermidis 8700B; experiment: MIC, microdilution method, resistant strains; details: Staphylococcus epidermidis, methicilin-resistant strain, clinical isolate
Description: as §1

[6] = test system: E. coli 16702; experiment: MIC, microdilution method, resistant strains; details: Escherichia coli, resistant strain, clinical isolate
Description: as §1

[7] = test system: Streptococcus agalactiae; experiment: MIC, microdilution method, reference strains; details: read after 24/48 hours of incubation at 37° C.
Description: as §1, with “bacteria-inoculum” for “bacteria—inoculum”, “used. Standard reference bacterial strains (Escherichia coli CCM 3954, Pseudomonas aeruginosa CCM 3955, Enterococcus faecalis CCM 4224, Staphylococcus aureus CCM 4223) were obtained from the Czech Collection of Microorganisms (CCM) at […] University in Brno. Streptococcus agalactiae, Bacillus subtilis were obtained from the University Hospital Olomouc. The tested microorganisms were maintained in cryobanks (ITEST plus, Czech Republic) at -80° C.” for “used.”

[8] = test system: Enterococcus faecalis CCM 4224; experiment: MIC, microdilution method, reference strains; details: CCM4224, read after 24/48 hours of incubation at 37° C.
Description: as §1, with “bacteria-inoculum” for “bacteria—inoculum”, “used. Standard reference bacterial strains (Escherichia coli CCM 3954, Pseudomonas aeruginosa CCM 3955, Enterococcus faecalis CCM 4224, Staphylococcus aureus CCM 4223) were obtained from the Czech Collection of Microorganisms (CCM) at […] University in Brno. Streptococcus agalactiae, Bacillus subtilis were obtained from the University Hospital Olomouc. The tested microorganisms were maintained in cryobanks (ITEST plus, Czech Republic) at -80° C.” for “used.”

[9] = test system: Pseudomonas aeruginosa CCM 3955; experiment: MIC, microdilution method, reference strains; details: CCM3955, read after 24/48 hours of incubation at 37° C.
Description: as §1, with “bacteria-inoculum” for “bacteria—inoculum”, “used. Standard reference bacterial strains (Escherichia coli CCM 3954, Pseudomonas aeruginosa CCM 3955, Enterococcus faecalis CCM 4224, Staphylococcus aureus CCM 4223) were obtained from the Czech Collection of Microorganisms (CCM) at […] University in Brno. Streptococcus agalactiae, Bacillus subtilis were obtained from the University Hospital Olomouc. The tested microorganisms were maintained in cryobanks (ITEST plus, Czech Republic) at -80° C.” for “used.”

[10] = test system: Staphylococcus aureus CCM 4223; experiment: MIC, microdilution method, reference strains; details: CCM4223, read after 24/48 hours of incubation at 37° C.
Description: as §1, with “bacteria-inoculum” for “bacteria—inoculum”, “used. Standard reference bacterial strains (Escherichia coli CCM 3954, Pseudomonas aeruginosa CCM 3955, Enterococcus faecalis CCM 4224, Staphylococcus aureus CCM 4223) were obtained from the Czech Collection of Microorganisms (CCM) at […] University in Brno. Streptococcus agalactiae, Bacillus subtilis were obtained from the University Hospital Olomouc. The tested microorganisms were maintained in cryobanks (ITEST plus, Czech Republic) at -80° C.” for “used.”

[11] = test system: Bacillus subtilis; experiment: MIC, microdilution method, reference strains; details: read after 24/48 hours of incubation at 37° C.
Description: as §1, with “bacteria-inoculum” for “bacteria—inoculum”, “used. Standard reference bacterial strains (Escherichia coli CCM 3954, Pseudomonas aeruginosa CCM 3955, Enterococcus faecalis CCM 4224, Staphylococcus aureus CCM 4223) were obtained from the Czech Collection of Microorganisms (CCM) at […] University in Brno. Streptococcus agalactiae, Bacillus subtilis were obtained from the University Hospital Olomouc. The tested microorganisms were maintained in cryobanks (ITEST plus, Czech Republic) at -80° C.” for “used.”

[12] = test system: Escherichia coli CCM 3954; experiment: MIC, microdilution method, reference strains; details: CCM3954, read after 24/48 hours of incubation at 37° C.
Description: as §1, with “bacteria-inoculum” for “bacteria—inoculum”, “used. Standard reference bacterial strains (Escherichia coli CCM 3954, Pseudomonas aeruginosa CCM 3955, Enterococcus faecalis CCM 4224, Staphylococcus aureus CCM 4223) were obtained from the Czech Collection of Microorganisms (CCM) at […] University in Brno. Streptococcus agalactiae, Bacillus subtilis were obtained from the University Hospital Olomouc. The tested microorganisms were maintained in cryobanks (ITEST plus, Czech Republic) at -80° C.” for “used.”

[13] = test system: Stenotrophomonas matophilia S2-23; experiment: MIC, microdilution method; details: S223, read after 24/48 hours of incubation at 37° C.
Description: as §1

[14] = test system: Acinetobacter baumanii A3-08; experiment: MIC, microdilution method; details: Acinetobacter baumannii, A308; read after 24/48 hours of incubation at 37° C.
Description: as §1

[15] = test system: Burkholderia multivorans ATCC BAA-247; experiment: MIC, microdilution method; details: ATCCBAA247, read after 24/48 hours of incubation at 37° C.
Description: as §1

[16] = test system: Salmonella Enteritidis S2-25; experiment: MIC, microdilution method; details: Salmonella enterica, read after 24/48 hours of incubation at 37° C.
Description: as §1

Compound | MIC [1] | MIC [3] | MIC [4] | MIC [5] | MIC [6] | MIC [7] | MIC [8] | MIC [9] | MIC [10] | MIC [11] | MIC [12] | MIC [13] | MIC [14] | MIC [15] | MIC [16] | MIC [2]
CCCCCCCCCCCCCCCOP(=O)(CCN(CCN)CCN)OC[C@H]1O[C@@H](n2ccc(=O)[nH]c2=O)C(O)C1O (stereo partly drawn) [Example 6, Pentadecyl-uridine-5′-yl-2-N-bis(3-aminoethyl)-2-aminoethyl phosphonate] | 100 µg/mL (≈ 154 µM) | 1.56 µg/mL (≈ 2.41 µM) | 6.25 µg/mL (≈ 9.65 µM) | 1.56 µg/mL (≈ 2.41 µM) | 1.56 µg/mL (≈ 2.41 µM) | 3.12 µg/mL (≈ 4.82 µM) | 12.5 µg/mL (≈ 19.3 µM) | 1.56 µg/mL (≈ 2.41 µM) | 6.25 µg/mL (≈ 9.65 µM) | 0.78 µg/mL (≈ 1.2 µM) | 1.56 µg/mL (≈ 2.41 µM) | – | – | – | – | 1.56 µg/mL (≈ 2.41 µM)
CCCCCCCCCCCCCCOP(=O)(CCN(CCN)CCN)OC[C@H]1O[C@@H](n2ccc(=O)[nH]c2=O)C(O)C1O (stereo partly drawn) [Example 7, Tetradecyl-uridine-5′-yl-2-N-bis(3-aminoethyl)-2-aminoethyl phosphonate] | 100 µg/mL (≈ 158 µM) | 6.25 µg/mL (≈ 9.86 µM) | 12.5 µg/mL (≈ 19.7 µM) | 3.12 µg/mL (≈ 4.93 µM) | 6.25 µg/mL (≈ 9.86 µM) | 6.25 µg/mL (≈ 9.86 µM) | 100 µg/mL (≈ 158 µM) | 3.12 µg/mL (≈ 4.93 µM) | 25 µg/mL (≈ 39.4 µM) | 6.25 µg/mL (≈ 9.86 µM) | 12.5 µg/mL (≈ 19.7 µM) | 6.25 µg/mL (≈ 9.86 µM) | 25 µg/mL (≈ 39.4 µM) | 12.5 µg/mL (≈ 19.7 µM) | 12.5 µg/mL (≈ 19.7 µM) | 3.12 µg/mL (≈ 4.93 µM)
CCCCCCCCCCCCCCOP(=O)(CCN1CCC(N)C1)OC[C@H]1O[C@@H](n2ccc(=O)[nH]c2=O)C(O)C1O (stereo partly drawn) [Example 10, Tetradecyl-uridine-5′-yl-(3-aminopyrrolidin-1-N-yl) ethyl phosphonate] | 50 µg/mL (≈ 81.1 µM) | 3.12 µg/mL (≈ 5.07 µM) | 25 µg/mL (≈ 40.5 µM) | 3.12 µg/mL (≈ 5.07 µM) | 3.12 µg/mL (≈ 5.07 µM) | 3.12 µg/mL (≈ 5.07 µM) | 6.25 µg/mL (≈ 10.1 µM) | 3.12 µg/mL (≈ 5.07 µM) | 12.5 µg/mL (≈ 20.3 µM) | 1.56 µg/mL (≈ 2.53 µM) | 3.12 µg/mL (≈ 5.07 µM) | – | – | – | – | 6.25 µg/mL (≈ 10.1 µM)

Second part, led by results:

MIC [1] | MIC [3] | MIC [4] | MIC [5] | MIC [6] | MIC [7] | MIC [8] | MIC [9] | MIC [10] | MIC [11] | MIC [12] | MIC [13] | MIC [14] | MIC [15] | MIC [16] | Compound | MIC [2]
50 µg/mL (≈ 65.8 µM) | 1.56 µg/mL (≈ 2.05 µM) | 3.12 µg/mL (≈ 4.11 µM) | 1.56 µg/mL (≈ 2.05 µM) | 0.78 µg/mL (≈ 1.03 µM) | 1.56 µg/mL (≈ 2.05 µM) | 25 µg/mL (≈ 32.9 µM) | 0.78 µg/mL (≈ 1.03 µM) | 3.12 µg/mL (≈ 4.11 µM) | 0.39 µg/mL (≈ 0.513 µM) | 0.78 µg/mL (≈ 1.03 µM) | 3.12 µg/mL (≈ 4.11 µM) | 6.25 µg/mL (≈ 8.22 µM) | 100 µg/mL (≈ 132 µM) | 1.56 µg/mL (≈ 2.05 µM) | CCCCCCCCCCCCCCCOP(=O)(CCN(CCCNC(=N)N)CCCNC(=N)N)OC[C@H]1O[C@@H](n2ccc(=O)[nH]c2=O)C(O)C1O (stereo partly drawn) [Example 8] | 1.56 µg/mL (≈ 2.05 µM)
50 µg/mL (≈ 67 µM) | 6.25 µg/mL (≈ 8.38 µM) | 6.25 µg/mL (≈ 8.38 µM) | 3.12 µg/mL (≈ 4.19 µM) | 3.12 µg/mL (≈ 4.19 µM) | 3.12 µg/mL (≈ 4.19 µM) | 12.5 µg/mL (≈ 16.8 µM) | 3.12 µg/mL (≈ 4.19 µM) | 6.25 µg/mL (≈ 8.38 µM) | 1.56 µg/mL (≈ 2.09 µM) | 3.12 µg/mL (≈ 4.19 µM) | 12.5 µg/mL (≈ 16.8 µM) | 12.5 µg/mL (≈ 16.8 µM) | 100 µg/mL (≈ 134 µM) | 3.12 µg/mL (≈ 4.19 µM) | CCCCCCCCCCCCCCOP(=O)(CCN(CCCNC(=N)N)CCCNC(=N)N)OC[C@H]1O[C@@H](n2ccc(=O)[nH]c2=O)C(O)C1O (stereo partly drawn) [Example 9] | 3.12 µg/mL (≈ 4.19 µM)
